# Experimental data from US20240390434A1, “PROBIOTIC ENHANCERS AND USES THEREOF” (Blis Technologies Limited, priority 2021, published 2024).
# What was measured:
# Format in all cases: cell-based
# [1] = test system: indicator bacterial test strains; experiment: Inhibitory activity of freeze dried raw ingredient powder, K12; conditions: galactose 0.5% w/w; raffinose 2.5% w/w; or combination
# Procedure: Method: The amount of raffinose and galactose used was calculated based on the volume of the area of the producer streak, (which was calculated to be 4.25 g) to allow for the absorption of the saccharides into the agar. Based on this, amount of 0.021 g (i.e. 0.5% w/w galactose of 4.25 g agar volume) of galactose, 0.11 g (i.e 2.5% w/w) of raffinose and the combination of galactose (0.5% w/w) and raffinose (2.5% w/w) (0.13 g total) were weighed into sterile containers. K12 and/or M18 raw ingredient were suspended and diluted with sterile distilled water to a concentration of 1-2×10^6 cfu/100 μl. Then, […] of K12 only, M18 only, and K12±M18 suspensions were spread as a 1 cm streak down the middle of a CABCa agar plate using a sterile spreader. […] Bacterial growth was then removed using a microscope slide, and the pH of the agar in the producer streak area was measured and adjusted to pH 6.5-7.5 using 0.5M sodium carbonate (pH 11) before surface sterilizing the plates with chloroform vapour. […] Zones of inhibition for each test organism were then measured in mm using a ruler. The amount of raffinose and galactose to be used was calculated based on the volume of the area of the producer streak, (which was calculated to be 4.25 g) to allow for absorption into the agar.
# ENTR indicator strains = experiment: Dose response deferred antagonism assay, producer K12: average over indicators
# Procedure: 1-2 producer strain colonies were transferred from a stock plate into 900 μL of suspension solution using a fresh cotton swab. Following this, suspensions were vortexed, and a sample was inoculated onto solid culture media using a fresh cotton swab. The inoculation was a streak that runs diametrically across the agar plate in a 1.5 cm wide strip. The plate was then incubated. Following incubation all visible colonies were removed by swabbing them from the agar surface. The plates were then treated with chloroform by dispensing 2 ml of chloroform onto 4 cm×4 cm piece of cloth and sealing the inverted agar plate on top for 30 minutes. The plates were then air dried for 30 minutes following chloroforming. 1-2 indicator strain colonies were then transferred from a stock plate into complementary suspension solution. […]
# Each indicator streak was prepared with fresh a suspension containing cells from a corresponding stock plate containing the indicator strain of interest. […] Results were measured by qualitatively reviewing the subsequent (if any) sizes of the zones of inhibition (ZOI) of indicator strain colony growth. […]
# CABCa agar plates containing various concentrations of saccharide were prepared according to the methods described in Method 1. […] Results were recorded by measuring the size of the zone of inhibition (ZOI) in mm. […]
# [2] = test system: bacterial indicator strains; experiment: Split plate inhibitory activity of K12 in commercial powder Daily Defence Junior; conditions: raffinose 2.5% w/w, galactose 0.5% w/w, or combination
# Procedure: Method: Formulations for testing were prepared as follows: • 1. Control: Commercial powder formulation (Daily Defence Junior) containing S. salivarius K12 • 2. Galactose 0.5% w/w was added to the commercial powder and mixed thoroughly to achieve a uniform mixture. • 3. Raffinose 2.5% w/w was added to the commercial powder and mixed thoroughly to achieve a uniform mixture.
# The following method was used to measure the inhibitory effect of S. salivarius K12 in the context of the powder formulations. Exactly 40 mL of 50° C. molten CAB agar containing 0.5% calcium carbonate (CABCa) was poured in agar plates (120×120 mm). Once the agar was set upon cooling, it was split in the middle and half of the agar gel was removed. The other half was left on the plate as Blank agar marked as side “A”. Approximately, 0.8 g of each combination (DDJ powder with (1) galactose, (2) raffinose or (3) combination of raffinose and galactose) was mixed with 1 mL of sterile distilled water and vortexed to produce a homogeneous suspension. […] The pH of the producer side was measured and adjusted to 6.5-7.5 by soaking into the agar a solution of 0.5 M sodium carbonate pH 11. […] The zone of inhibition of each indicator strain was measured (in mm) using a ruler. Results were also read using a macroscope to establish presence of small colonies or complete inhibition zones.
Compound,inhibitory activity of freeze-dried raw ingredient powder of K12 [1],Average ZOI change (ENTR indicator strains; 1.5% raffinose) [mm],inhibitory activity of S. salivarius K12 in commercial powder vs control [2],Average ZOI change (ENTR indicator strains; 2% galactose) [mm]
"OC[C@H]1O[C@H](OC[C@H]2O[C@H](O[C@]3(CO)O[C@H](CO)[C@@H](O)[C@@H]3O)[C@H](O)[C@@H](O)[C@@H]2O)[C@H](O)[C@@H](O)[C@H]1O [Raffinose, D-(+) Raffinose pentahydrate]",induced the inhibitory activity,10.33,increased,
"O=C[C@H](O)[C@@H](O)[C@@H](O)[C@H](O)CO [Galactose, D-galactose]",induced the inhibitory activity,,increased,9.5
